Test results taken from ChEMBL document CHEMBL4813933, “Discovery of Thanafactin A, a Linear, Proline-Containing Octalipopeptide from Pseudomonas sp. SH-C52, Motivated by Genome Mining” (J Nat Prod, 2021).
Activity calls are given as the source filed them.

Experiments:
[1] = target: T1, Cathepsin K (Homo sapiens) (UniProt P43235); test: Inhibition of human cathepsin K at 10 uM using Z-Leu-Arg-AMC as substrate incubated for 60 mins by fluorometric assay
T1 sequence (whole entry): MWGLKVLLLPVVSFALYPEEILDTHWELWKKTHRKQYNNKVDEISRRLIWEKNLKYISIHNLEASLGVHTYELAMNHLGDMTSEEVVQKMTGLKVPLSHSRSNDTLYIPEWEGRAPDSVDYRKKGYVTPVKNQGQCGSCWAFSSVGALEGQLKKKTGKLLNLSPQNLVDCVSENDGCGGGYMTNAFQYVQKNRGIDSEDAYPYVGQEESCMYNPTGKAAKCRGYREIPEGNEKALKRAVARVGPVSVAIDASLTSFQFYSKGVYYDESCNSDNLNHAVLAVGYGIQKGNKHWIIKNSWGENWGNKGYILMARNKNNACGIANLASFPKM

[2] = system: Chromobacterium violaceum; test: Inhibition of quorum sensing system in Chromobacterium violaceum CV026 assessed as reduction in swarming motility at 1 mg/ml measured after 1 hr
Staphylococcus aureus = test: Inhibition of quorum sensing system in Staphylococcus aureus PC322 assessed as reduction in swarming motility at 1 mg/ml measured after 1 hr

Measured: inhibition

CCCCCCC[C@@H](O)CC(=O)N[C@@H](C(=O)N[C@H](C)C(=O)N[C@H](CCC(N)=O)C(=O)N[C@@H](C)C(=O)N[C@@H](C(=O)N[C@@H](C)C(=O)N1CCC[C@H]1C(=O)N[C@H](C(=O)O)[C@@H](C)O)C(C)C)C(C)C
inactive: all assays above
